Results from patent publication US10286057B2, “Cyclic HIV-1 Env V3 glycopeptide immunogens” (DUKE UNIVERSITY, priority 2013, dated 2019).
Ends that are not written are not given here. * marks the point of attachment. Man3GlcNAc2 = CC(=O)N[C@@H]1[C@@H](O)[C@H](O[C@@H]2O[C@H](CO)[C@@H](O[C@@H]3O[C@H](CO[C@H]4O[C@H](CO)[C@@H](O)[C@H](O)[C@@H]4O)[C@@H](O)[C@H](O[C@H]4O[C@H](CO)[C@@H](O)[C@H](O)[C@@H]4O)[C@@H]3O)[C@H](O)[C@H]2NC(C)=O)[C@@H](CO)O[C@H]1*

How the values were obtained:
PGT128 [1] = conditions: protein-free glycan; cited from earlier work
BnAb PG9 [2] = test: SPR (Biacore) binding of V1V2 antigens to BnAb PG9; conditions: FIG. 1B, antigen 200 μg/ml
Method: (§1) FIGS. 1A-1E. Initial evaluation of synthetic V1V2 glycopeptide constructs. […] Surface plasmon reasonance (SPR) analysis of the interaction of V1V2 Man5GlcNAc2 (green), Man3GlcNAc2 (red), GlcNAc2 (blue), or aglycone (magenta) antigens with BnAbs PG9 (FIG. 1B), CH01 (FIG. 1C), or their respective umutated common ancestor (UCA) antibodies, PG9 UCA (FIG. 1D), and CH01-04 UCA (FIG. 1E). Concentration of antigens was 200 μg/ml for FIGS. […], and 100 μg/ml for FIGS. 1D and 1E, RU=response units
(§2) Using chemical methods (see, for example, those referenced above), a set of homogeneous V1V2 glycopeptides bearing Man3GlcNAc2, Man5GlcNAc2, and GlcNAc2 N-glycans were synthesized de novo (FIG. 1A). […] Importantly, binding by the naked “aglycone” (FIGS. 1B,C) or the solitary protein-free Man3 and Man5 oligosaccharides (data not shown) was not observed.

BnAb CH01 [3] = test: SPR (Biacore) binding of V1V2 antigens to BnAb CH01; conditions: FIG. 1C, antigen 200 μg/ml
Method: as §1, §2

PGTs 125-128 and 130 = conditions: cited from earlier work
2G12 = test: Binding to mAb 2G12; conditions: FIG. 13C
Excerpt: (§3) FIG. 13A-D show binding of PGT mAbs to synthetic Man9GlcNAc2 glycan. Binding of V3 Bnab to Man9 glycan. […] Thus, the binding of Man9GlcnAc2 glycan was detected only for V3-glycan dependent PGT BNAbs.
FIGS. 11-13 depict various experimental data showing that synthetic glycopeptides, such as for example the peptide of FIG. 1, can show differential binding to bnAbs vs non-neutralizing antibodies. […] Both 2G12 mAb and 2G12 UCA bound well to Man5 V1V2 dimer, indicating recognition of the glycan cluster on a V2 backbone.

V1V2 mAb PGT145 = test: Binding to V1V2 mAb PGT145; conditions: FIG. 13D
Excerpt: as §3

[4] = test system: V3 loop non-neutralizing mAb 19b; test: SPR binding to captured V3 loop non-neutralizing mAb 19b; conditions: FIG. 12 and FIG. 13D
Excerpt: (§4) Both PGT128 and PGT125 are dependent on Man9 glycans on position N332 and N301 (Pejchal et al., 2011), with N332 being the primary glycan.
(§5) Binding of V3 Bnab to Man9 glycan.

PGT125 = test: SPR binding to captured mAb PGT125; conditions: FIG. 13B
Excerpt: as §4, §5

PGT128 [5] = test: SPR binding to captured mAb PGT128; conditions: FIG. 13A
Excerpt: as §4, §5

CH01-04 UCA = test: SPR binding of V1V2 antigens to CH01 UCA; conditions: FIG. 1E, antigen 100 μg/ml
Method: as §1
(§6) This is the first antigen known to bind to the PG9 UCA. […] Thus, these two V1V2 peptide-glycans have selective reactivity toward the V1V2 BnAbs, and react poorly or not at all with the CH58 mature and UCA antibodies. Therefore, these V1V2 peptide-glycan immunogens are prime candidates for selective induction of V1V2 BnAb lineages that are normally sub-dominant with infrequent UCAs.

RV144 mAb CH58 = test: Reactivity of RV144 mAb CH58 toward V1V2 glycopeptides; assay type: binding; conditions: data not shown
Excerpt: as §6

PG9 UCA = test: SPR binding of V1V2 antigens to PG9 UCA; conditions: FIG. 1D, antigen 100 μg/ml
Method: as §1, §6

CH58 UCA = test: Reactivity of CH58 UCA toward V1V2 glycopeptides; assay type: binding; conditions: data not shown
Excerpt: as §6

BnAb PG9 [6] = conditions: from previous work; cited from earlier work
BnAb CH01 [7] = conditions: from previous work; cited from earlier work

Compound: CC(=O)N[C@H]1[C@H](O[C@H]2[C@H](O)[C@@H](NC(C)=O)C(O)O[C@@H]2CO)O[C@H](CO)[C@@H](O[C@@H]2O[C@H](CO[C@H]3O[C@H](CO)[C@@H](O)[C@H](O)[C@@H]3O)[C@@H](O)[C@H](O[C@H]3O[C@H](CO)[C@@H](O)[C@H](O)[C@@H]3O)[C@@H]2O)[C@@H]1O (stereo partly drawn) [Man3 oligosaccharide, Man3GlcNAc2]
- binding of PGT128 on glycan arrays (PGT128 [1]): not observed
- binding to BnAb PG9 (BnAb PG9 [2]): not observed
- binding to BnAb CH01 (BnAb CH01 [3]): not observed

Compound: CC(=O)N[C@@H]1[C@@H](O)[C@H](O[C@@H]2O[C@H](CO)[C@@H](O[C@H]3O[C@H](CO[C@H]4O[C@H](CO[C@H]5O[C@H](CO)[C@@H](O)[C@H](O)[C@@H]5O[C@H]5O[C@H](CO)[C@@H](O)[C@H](O)[C@@H]5O)[C@@H](O)[C@H](O[C@H]5O[C@H](CO)[C@@H](O)[C@H](O)[C@@H]5O)[C@@H]4O)[C@@H](O)[C@H](O[C@H]4O[C@H](CO)[C@@H](O)[C@H](O)[C@@H]4O[C@H]4O[C@H](CO)[C@@H](O)[C@H](O)[C@@H]4O[C@H]4O[C@H](CO)[C@@H](O)[C@H](O)[C@@H]4O)[C@@H]3O)[C@H](O)[C@H]2NC(C)=O)[C@@H](CO)O[C@H]1O [Man8, reference compound]
- binding of PGTs 125-128 and 130 on glycan arrays (PGTs 125-128 and 130): showed binding

Compound: CC(=O)N[C@H]1[C@H](O[C@H]2[C@H](O)[C@@H](NC(C)=O)C(O)O[C@@H]2CO)O[C@H](CO)[C@@H](O[C@@H]2O[C@H](CO[C@H]3O[C@H](CO[C@H]4O[C@H](CO)[C@@H](O)[C@H](O)[C@@H]4O[C@H]4O[C@H](CO)[C@@H](O)[C@H](O)[C@@H]4O)[C@@H](O)[C@H](O[C@H]4O[C@H](CO)[C@@H](O)[C@H](O)[C@@H]4O[C@H]4O[C@H](CO)[C@@H](O)[C@H](O)[C@@H]4O)[C@@H]3O)[C@@H](O)[C@H](O[C@H]3O[C@H](CO)[C@@H](O)[C@H](O)[C@@H]3O[C@H]3O[C@H](CO)[C@@H](O)[C@H](O)[C@@H]3O[C@H]3O[C@H](CO)[C@@H](O)[C@H](O)[C@@H]3O)[C@@H]2O)[C@@H]1O (stereo partly drawn) [Man9 glycan, Man9GlcNAc2]
- 2G12 binding to free glycan (2G12): only detected at the highest concentration
- binding to V1V2 mAb PGT145 (V1V2 mAb PGT145): no binding
- binding to non-neutralizing V3 mAb 19b [4]: no binding
- affinity of PGT125 binding to free glycan (PGT125): affinities in μM
- affinity of PGT128 binding to free glycan (PGT128 [5]): affinities in μM
- binding of PGTs 125-128 and 130 on glycan arrays (PGTs 125-128 and 130): showed binding

Compound: Man3 construct: V1V2 glycopeptide (SEQ ID NO: 9, AE.CM244/A244) bearing two N-linked Man3GlcNAc2 at N160 and N156 (ITDEVRN(Man3GlcNAc2)CSFN(Man3GlcNAc2)MTTELRDKKQKVHALFYKLDIVPI)
- affinity for CH01 UCA (CH01-04 UCA): significant affinity
- reactivity of mAb CH58 (RV144 mAb CH58): only weak reactivity
- affinity for PG9 UCA (PG9 UCA): significant affinity
- reactivity of CH58 UCA (CH58 UCA): only weak reactivity
- binding to BnAb PG9 (BnAb PG9 [2]): bind
- binding to BnAb CH01 (BnAb CH01 [3]): bind

Compound: Man5 construct: V1V2 glycopeptide (SEQ ID NO: 9) bearing two N-linked Man5GlcNAc2 at N160 and N156 (ITDEVRN(Man5GlcNAc2)CSFN(Man5GlcNAc2)MTTELRDKKQKVHALFYKLDIVPI)
- affinity for CH01 UCA (CH01-04 UCA): to a lesser extent
- reactivity of mAb CH58 (RV144 mAb CH58): almost no affinity
- reactivity of CH58 UCA (CH58 UCA): almost no affinity
- binding to BnAb PG9 (BnAb PG9 [2]): bind
- binding to BnAb CH01 (BnAb CH01 [3]): bind

Compound: Man5GlcNAc2 [Man5 oligosaccharide]
- binding to BnAb PG9 (BnAb PG9 [2]): not observed
- binding to BnAb CH01 (BnAb CH01 [3]): not observed

Compound: aglycone: V1V2 peptide of SEQ ID NO: 9 with zero glycans (ITDEVRNCSFNMTTELRDKKQKVHALFYKLDIVPI)
- binding to PG9 (BnAb PG9 [6]): did not show binding
- binding to CH01 (BnAb CH01 [7]): did not show binding
- binding to BnAb PG9 (BnAb PG9 [2]): not observed
- binding to BnAb CH01 (BnAb CH01 [3]): not observed
